# Where two headings read alike, the source gives them in different places.
# Experiments:
# [1] = system: SK-MEL-2 human melanoma xenograft (NRAS mutant); assay type: in vivo; settings: for Non-Specific Deaths / Regression (100%) / Tumor Free on Day 74: n=8; for Delta AUC: vs vehicle
# Method: Eight week old female athymic NCr-nu/nu mice were inoculated SC with 30-40 mg tumor fragments, propagated in an in vivo passage, in the area of the right flank. Tumor growth was monitored with vernier calipers and the tumor volume was calculated using the formula (0.5×[length×width^2]). When the mean tumor volume (MTV) reached approximately 167 mm^3 (range of 100-245 mm^3) animals were randomized into 12 treatment groups (n=8/group). The animals were dosed beginning 12 days after tumor inoculation with either vehicles or test compounds. The first day of treatment was designated as Day 0.
# The 10 mg/mL solution was diluted with 100% PEG 400 for the lower dose.
# Sodium alisertib was formulated in a half volume of 20% HPBCD in WFI and then diluted to a final volume (10% HPBCD/1% NaHCO3 in WFI) with 2% sodium bicarbonate in WFI.
# The 2 vehicles, 100% PEG 400 (Vehicle 1) and 10% HPBCD/1% NaHCO3 in WFI (Vehicle 2) were administered (0.05 mL/10 g BW) concomitantly to mice in the vehicle group.
# Tumor size and body weight were measured BIW beginning on the first day of treatment. Animals were terminated when their tumor reached approximately 2000 mm3, and the study was terminated on Day 62 post treatment initiation.
# Inhibition of tumor growth was determined by calculating the percent TGI (MTV of the vehicle group−MTV of a treated group)/MTV of the vehicle group on Day 20 post treatment initiation. Statistical comparisons of tumor growth between treatment groups and vehicle were conducted using a linear mixed effects regression analysis on the ΔAUC.
# Additional endpoints used to evaluate efficacy were: nonspecific deaths, complete tumor response, and the number of tumor-free survivors (TFS), defined as no measurable tumor observed on the last day of data collection prior to study termination (Day 62 post treatment initiation). A complete response (CR) was defined as a decrease in tumor mass to an undetectable size (<32 mm3).
# The differences in the tumor growth trends over time between the vehicle control and treatment groups were assessed using linear mixed effects regression models. These models take into account that each animal was measured at multiple time points. A model was fit for the comparison, and the areas under the tumor volume-versus-time curve (AUCs) for control and treatment groups were calculated using the values predicted from the model.
# These values were compared across treatment groups to assess whether the differences in trends over time were statistically significant. To compare pairs of treatment groups, the following mixed-effects linear regression model was fit to the data using the maximum likelihood method:
# Where Yijk is the log 10 tumor value at the jth time point of the kth animal in the ith treatment, Yi0k is the day 0 (baseline) log 10 tumor value in the kth animal in the ith treatment, dayj was the median-centered time point and (along with day2j) was treated as a continuous variable, and eijk is the residual error. A spatial power law covariance matrix was used to account for the repeated measurements on the same animal over time. Interaction terms as well as day2j terms were removed if there were not statistically significant.
# The −2 log likelihood of the full model was compared to one without any treatment terms (reduced model) and the difference in the values was tested using a Chi-squared test. The degrees of freedom of the test were calculated as the difference between the degrees of freedom of the full model and that of the reduced model.
# The predicted differences in the log tumor values (Yijk-Yi0k, which can be interpreted as log 10 (fold change from day 0)) were taken from the above models to calculate mean AUC values for each treatment group. A dAUC value was then calculated as: […]
# For synergy analysis, the observed differences in the log tumor values were used to calculate AUC values for each animal. […]
# [2] = system: A375 melanoma xenograft (B-Raf mutant); test: In vivo tumor efficacy, B-Raf mutated A375 human melanoma xenograft model; parameters: species or system Mouse (Mus musculus) Athymic Balb/c Nude; settings: for Mean Maximum % BWL: Day 0 to Day 21; for TGI: Day 21 post treatment initiation
# Method: Each animal was inoculated with 3×10^6 A375 tumor cells (in 0.1 mL, 1:1 with Matrigel) into the right flank for tumor model development. Body weight and the tumor growth were monitored twice weekly. Tumor size was measured to the nearest 0.1 mm using vernier calipers and applying the formula V=W2×L/2, where V=volume, W=width, and L=length for the tumor xenograft. Xenografts were allowed to grow until they reached an average size of approximately 195 min3, 11 days after inoculation.
# Sodium alisertib was formulated in 10% HPβCD plus 1% NaHCO3 in water for injection (WFI) (Vehicle 2). Alisertib was prepared and stored at room temperature (18 to 25° C.).
# Animals in the vehicle treatment group were given both Vehicle 1 and Vehicle 2.
# The dose volume for vehicle or compound was 5 mL/kg body weight.
# Tumor size and body weight were measured twice weekly beginning on the day of animal grouping (e.g., Day 0). Animals were terminated when their tumor reached approximately 2000 mm3 and the study was terminated on Day 38 post treatment initiation.
# Inhibition of tumor growth was determined by calculating the percent TGI (MTV of the vehicle group−MTV of a treated group)/MTV of the vehicle group] on Day 21 post treatment initiation. Statistical comparisons of tumor growth between treatment groups and vehicle were conducted using a linear mixed effects regression analysis on the ΔAUC.
# Statistical analysis was carried out as described in Example 2.
# [3] = Compound A 12.5 mg/kg/inj PO Q1D x 21 from Day 12 (+Vehicle 2)
# [4] = Compound A 50 mg/kg/inj PO Q3D x 2/3 wks (BIW) from Day 12 (+Vehicle 2)
# [5] = Compound A 12.5 mg/kg PO QD Days 1-21 (+Vehicle 2)
# [6] = Compound A 50 mg/kg PO BIW Days 1, 4, 8, 11, 15, 18 (+Vehicle 2)
# [7] = alisertib 20 mg/kg/inj PO Q1D x 21 from Day 12 (+Vehicle 1)
# [8] = alisertib 10 mg/kg PO QD Days 1-21 (+Vehicle 1)
# [9] = alisertib 20 mg/kg PO QD Days 1-21 (+Vehicle 1)
smiles,measurement,setting,value
"C[C@@H](NC(=O)c1ncnc(N)c1Cl)c1ncc(C(=O)Nc2cc(C(F)(F)F)c(Cl)cn2)s1 [Compound A, (R)-2-(1-(6-amino-5-chloropyrimidine-4-carboxamide)ethyl)-N-(5-chloro-4-(trifluoromethyl)pyridin-2-yl)thiazole-5-carboxamide]",Mean Tumor Volume on Day 32,[1]; [3],645 mm^3
same,TGI on Day 32,[1]; [3],70.7%
same,Non-Specific Deaths,[1]; [3],0
same,Regression (100%),[1]; [3],0
same,Tumor Free on Day 74,[1]; [3],0
same,Delta AUC,[1]; [3],37.3
same,Mean Tumor Volume on Day 32,[1]; [4],816 mm^3
same,TGI on Day 32,[1]; [4],62.9%
same,Non-Specific Deaths,[1]; [4],0
same,Regression (100%),[1]; [4],0
same,Tumor Free on Day 74,[1]; [4],0
same,Delta AUC,[1]; [4],35.6
same,Mean Maximum % BWL,[2]; [5],0%
same,TGI,[2]; [5],76.4%
same,Mean Maximum % BWL,[2]; [6],0%
same,TGI,[2]; [6],45.3%
"COc1cc(Nc2ncc3c(n2)-c2ccc(Cl)cc2C(c2c(F)cccc2OC)=NC3)ccc1C(=O)O [alisertib, 4-{[9-chloro-7-(2-fluoro-6-methoxyphenyl)-5H-pyrimido[5,4-d][2]benzazepin-2-yl]amino}-2-methoxybenzoic acid, reference compound]",Mean Tumor Volume on Day 32,[1]; [7],872 mm^3
same,TGI on Day 32,[1]; [7],60.3%
same,Non-Specific Deaths,[1]; [7],0
same,Regression (100%),[1]; [7],0
same,Tumor Free on Day 74,[1]; [7],0
same,Delta AUC,[1]; [7],30.9
same,Mean Maximum % BWL,[2]; [8],0%
same,TGI,[2]; [8],21.7%
same,Mean Maximum % BWL,[2]; [9],0%
same,TGI,[2]; [9],40.7%

# — US20180263979A1, “COMBINATION OF RAF INHIBITORS AND AURORA KINASE INHIBITORS” (MILLENNIUM PHARMACEUTICALS, INC., priority 2014, published 2018)
